Measurements: patent US8288512B2, “Use of amphiphilic self-assembling proteins for formulating poorly water-soluble effect substances” (BASF SE, priority 2006, dated 2012)
≈ marks a conversion by molar mass, not a printed value. Where two headings read alike, the source gives them in different places.

Key:
[1] = cited from earlier work
[2] = Packing of metazachlor in C16 protein microbeads, active substance distribution (photometric at 215 nm); type: physicochemical
Method: 500 μl of a 10 mg/ml C16 protein-comprising potassium phosphate solution (5 mM, pH 8.0) were mixed with 100 μl of a metazachlor solution (50 mg/ml in isopropanol). C16 Protein microbead formation was induced by adding 1 ml of 1 M potassium phosphate buffer (pH 8.0). The mixture was incubated for 1 h at room temperature and then centrifuged for 10 min at 20000×g. The pellet was washed twice with 5 ml of double-distilled H2O and then lyophilized. An identical mixture without C16 protein was carried out as control.
In each case, about 20% of the active substance were present in the wash supernatants.
(§1) Analysis of the Active Substance Distribution (Photometric Determination at λ=215 nm)

[3] = target: proteinase K (Parengyodontium album, UniProt P06873); experiment: Release of metazachlor from C16 protein microbeads by proteinase K digestion
Method: The lyophilized metazachlor-comprising C16 protein microbeads were proteolytically digested in 1 ml of 10 mM Tris buffer; 0.1% SDS; 100 μg of proteinase K for 1 h at 37° C. The active substance crystals remaining from the mixture after centrifugation for 10 minutes (20000×g) were dissolved in 500 μl of isopropanol. About 11% of the amount of metazachlor used was detected in the supernatant of the protease digestion. The active substance crystals redissolved in isopropanol constituted about 35% of the amount of metazachlor used.
as §1

[4] = of the amount of metazachlor used
[5] = proteinase K, 1 h, 37° C., 5.0 mg metazachlor used

Chain of proteinase K (P06873 106-384): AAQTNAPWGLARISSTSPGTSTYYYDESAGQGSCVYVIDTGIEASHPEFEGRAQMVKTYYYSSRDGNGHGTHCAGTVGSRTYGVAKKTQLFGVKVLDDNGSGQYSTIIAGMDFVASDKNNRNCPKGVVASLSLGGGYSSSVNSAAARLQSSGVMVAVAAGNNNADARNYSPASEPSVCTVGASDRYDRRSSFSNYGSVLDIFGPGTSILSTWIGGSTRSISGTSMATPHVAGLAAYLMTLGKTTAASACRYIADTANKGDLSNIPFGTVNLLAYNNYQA

NC(=O)N1c2ccccc2C=Cc2ccccc21 [Carbamazipine]
Solubility in water ([1]; RT): 0.9451 g/L (≈ 4000 µM)

Clc1ccccc1C(c1ccccc1)(c1ccccc1)n1ccnc1 [Clotrimazole]
Solubility in water ([1]; 25° C.): <0.01 g/L

Cc1cccc(C)c1N(Cn1cccn1)C(=O)CCl [metazachlor]
Crystal formation after potassium phosphate precipitation ([2]; mixture with C16 protein): no metazachlor crystals were visible
Crystal formation after potassium phosphate precipitation ([2]; mixture without C16 protein): large active substance crystals were formed
Active substance crystals redissolved in isopropanol [3, 4]: about 35%
Metazachlor detected in the supernatant of the protease digestion [3, 4]: About 11%
Amount of substance, pellet after digestion in isopropanol [3, 5]: 1.74 mg
Amount of substance, supernatant after protease digestion [3, 5]: 0.55 mg

B1: C16 protein: synthetic spider silk protein with the polypeptide sequence shown in SEQ ID NO: 1 (protein)
chain: MASMTGGQQMGRGSMGSSAAAAAAAASGPGGYGPENQGPSGPGGYGPGGPGSSAAAAAAAASGPGGYGPENQGPSGPGGYGPGGPGSSAAAAAAAASGPGGYGPENQGPSGPGGYGPGGPGSSAAAAAAAASGPGGYGPENQGPSGPGGYGPGGPGSSAAAAAAAASGPGGYGPENQGPSGPGGYGPGGPGSSAAAAAAAASGPGGYGPENQGPSGPGGYGPGGPGSSAAAAAAAASGPGGYGPENQGPSGPGGYGPGGPGSSAAAAAAAASGPGGYGPENQGPSGPGGYGPGGPGSSAAAAAAAASGPGGYGPENQGPSGPGGYGPGGPGSSAAAAAAAASGPGGYGPENQGPSGPGGYGPGGPGSSAAAAAAAASGPGGYGPENQGPSGPGGYGPGGPGSSAAAAAAAASGPGGYGPENQGPSGPGGYGPGGPGSSAAAAAAAASGPGGYGPENQGPSGPGGYGPGGPGSSAAAAAAAASGPGGYGPENQGPSGPGGYGPGGPGSSAAAAAAAASGPGGYGPENQGPSGPGGYGPGGPGSSAAAAAAAASGPGGYGPENQGPSGPGGYGPGGPG
modifications: Synthetic spider silk C16 protein
Effect on the crystallization of metazachlor ([2]; in the presence of aqueous potassium phosphate buffer): significant inhibitiory effect
